Columns and labels:
[1] = system: Proteobacteria (Enterobacteriaceae); assay: Fecal shotgun metagenomics of hospitalized liver disease patients stratified by lactulose exposure: Enterobacteriaceae/Proteobacteria abundance; format: in vivo, human; conditions: fecal samples from lactulose-treated patients
[2] = system: B. longum
Method: B. longum was grown in regular media (blue) or media supplemented with 50 mM lactulose (red) or sucrose (green). (A) pH before and after 24 h of growth (n=3 for 0 h; n=6 for 24 h). (B) SCFA concentrations after 24 h of growth. n=6 all conditions. […] Plots are representative of three independent experiments with ≥3 technical replicates all with consistent results. TCA: taurocholic acid, GCA: glycocholic acid, CA: cholic acid, CDCA: chenodeoxycholic acid, DCA: deoxycholic acid, and LCA: lithocholic acid. (E) Schematic of B. longum gavage, lactulose administration, and stool collection in ex-GF mice. […] (I-K) SCFA concentrations before and 10-days after Bifidobacteria inoculation. Each dot represents one sample from each mouse. […] (L) Primary, (M) conjugated primary, and (N) secondary BA were measured at indicated timepoints. Each dot represents one sample from each mouse. […] Short chain fatty acids (SCFA, i.e. butyrate, acetate, propionate, and succinate) were derivatized with pentafluorobenzyl bromide (PFBBr) and analyzed via negative ion collision induced-gas chromatography-mass spectrometry ([-]CI-GC-MS, Agilent 8890) 92. Eight bile acids (BA, i.e. primary: cholic acid; conjugated primary: glycocholic acid, taurocholic acid; secondary: deoxycholic acid, lithocholic acid [LCA], isodeoxycholic acid; modified secondary: alloisolithocholic acid [alloisoLCA] and 3-oxolithocholic acid [3-oxoLCA]) were quantified (μg/mL) by negative mode liquid chromatography-electrospray ionization-quadrupole time-of-flight-MS ([-]LC-ESI-QTOF-MS, Agilent 6546). […] All mouse studies were approved by The University of Chicago Institutional Animal Care and Use Committee (IACUC, Protocol 72599). For germ-free studies, 6-18 week-old male and female C57BL/6 mice were used.

[3] = system: B. longum; assay: B. longum growth, pH and SCFA in BHIS with 50 mM lactulose or sucrose; format: cell-based, Bifidobacterium longum
Source text: FIGS. 4A-4D: Lactulose-mediated Bifidobacteria expansion is associated with exclusion of antibiotic-resistant Enterococcus species. (A) Relative abundance of potentially pathogenic taxa Enterococcus and Proteobacteria were plotted based on lactulose exposure (no lactulose, left; lactulose, right) and relative abundance of Bifidobacteria (<10%, blue; ≥10%, red). Each point represents a single sample with the following sample sizes: total n=262; no lactulose, <10%, n=79; no lactulose, ≥10%, n=24; lactulose, <10%, n=87; lactulose, ≥10%, n=72. Median and interquartile range are indicated by the horizontal line and box, respectively. The lower vertical line depicts Q1-1.5*IQR and the upper vertical line depicts Q3+1.5*IQR. Statistical comparisons between individual groups were analyzed using a two-tailed Wilcoxon rank sum test. P-values are adjusted for multiple comparisons using the Benjamini-Hochberg procedure and represented as follows: *, p<0.05; **, p<0.01; ***, p<0.001; ****, p<0.0001. (B) A human-derived B. longum species was grown in BHIS media (blue) or BHIS supplemented with 50 mM lactulose (red) or 50 mM sucrose (green), and growth curves (OD600 over time) are shown. […] This graph is representative of three independent experiments, also done in triplicate, all with consistent results. (C) Schematic of experimental design for B. longum (purple bacilli) and VRE (green cocci) co-culture. B. longum and VRE were grown to steady state and diluted to low density (OD600=0.05) prior to inoculation in either BHIS or BHIS supplemented with 50 mM lactulose. Cultures were inoculated with both bacteria simultaneously (top) or B. longum was given either a 24-hour or 48-hour lead time prior to VRE inoculation (bottom). (D) After 24-hours of co-culture, serial dilutions of three replicates were plated for VRE c.f.u. counts. Each replicate is plotted as an individual point, and the median is represented by the horizontal line. […]
(C and D) Supernatant BA quantified after 24 h of B. longum growth in media containing 10 μg/ml conjugated primary BA ((C) TCA or (D) GCA). n=4 all conditions. […]

[4] = lactulose 10 days, B. longum colonized mice

OC[C@H]1O[C@@H](O[C@@H]2[C@@H](CO)OC(O)(CO)[C@H]2O)[C@H](O)[C@@H](O)[C@H]1O (mixture of isomers) [Lactulose, lactulose]
Enterobacteriaceae abundance, mean [1]: 7.9%
Enterobacteriaceae abundance, median [1]: 0.9%
Enterobacteriaceae abundance, range [1]: 0.0-98.8%
Stool water content ([2]; GF mice, 20 g/L lactulose in water): increased
Fecal acetate concentration [2, 4]: elevated
Fecal conjugated BA concentrations [2, 4]: reduced
Fecal unconjugated primary BA concentrations [2, 4]: elevated
Lactulose in stool ([2]; mouse, in vivo): detectable
Acetate in B. longum culture ([3]; 50 mM lactulose, 24 h): acetate production
Media pH after B. longum growth ([3]; 50 mM lactulose, 24 h): media acidification
B. longum culture growth (OD600) ([3]; BHIS supplemented with 50 mM sugar): augmented
